# Results: US12721832B2, “Anti-senescence plant polyphenol drug downregulating senescence-related secretory phenotype and use thereof” (BYHEALTH CO., LTD., priority 2021, dated 2026)
# How the values were obtained:
# SASP factors = assay: qRT-PCR of SASP molecules in BLEO-induced senescent PSC27 cells at different PCC1 concentrations; format: cell-based, human
# Procedure: All data are normalized results compared to the CTRL group. *, P<0.05; **, P<0.01.
# Total RNA of cells in the growth phase or stasis phase was extracted with Trizol reagent, 1 mL Trizol was added to each T25 culture flask, the cell layer was scraped off with a cell scraper, transferred into a centrifuge tube, and mixed well until not viscous. […] After the RNA was quantified by a spectrophotometer, a small amount of total RNA was taken for 1% agarose electrophoresis to check the status and quality of the RNA. […]
# Sample was loaded according to the above standard, and the reaction conditions were: 95° C. pre-denaturation for 15 seconds, then 95° C. for 5 seconds, 60° C. for 31 seconds, 40 cycles; melting curve conditions were 95° C. for 15 seconds, 60° C. for 30 seconds, 95° C. for 15 seconds. […] The expression of (3-actin was used as an internal reference. After the reaction was completed, the amplification of each gene was checked by software analysis, the corresponding threshold cycle number was derived, and the relative expression of each gene was calculated using the 2-AACt method. The peak and waveform of the melting curve was analyzed to determine whether the obtained amplification product was a specific single target fragment. […]
# senescent PSC27 cells = assay: SA-β-Gal staining of PSC27 under increasing PCC1 concentration; format: cell-based, human
# Procedure: Senescence-associated (3-galactosidase (SA-β-Gal) staining was performed following a previously reported procedure (Debacq-Chainiaux et al., 2009). Briefly, cells in culture dishes were washed with PBS and fixed at room temperature. Cells were fixed in 2% formaldehyde and 0.2% glutaraldehyde for 3 minutes. SA-β-Gal was used for staining with freshly prepared staining solution overnight at 37° C. Images were taken on the next day and the percentage of positive cells per unit area was calculated.
# PSC27 cells [1] = assay: CCK8 cell viability of proliferating and senescent PSC27 under increasing PCC1; format: cell-based, human
# Procedure: P value at each PCC1 concentration is the significant difference after comparison between CTRL and BLEO groups. **, P<0.01; ***, P<0.001; ****, P<0.0001.
# Pharmacodynamic analysis was conducted on a natural product library (BY-HEALTH) with a total of 41 components, most of which were medicinal plant extracts and had anti-senescence potential. Each product was diluted to a 96-well plate according to a certain concentration gradient, and the density was 5000 cells per well. The medium uses DMEM, and the working concentration of natural product (or compound) is generally controlled at 1 μM to 1 mM. After 3-7 days of drug treatment, cell proliferation was measured with CCK-8 Cell Counting Kit (based on WST-8 principle, Vazyme), and cell apoptosis activity was determined with Caspase 3/7 Activity Kit (Promega).
# PSC27 cells [2] = assay: Population doubling test of PSC27; format: cell-based, human
# Procedure: The cells were damaged by BLEO at passage 10 (p10), and then PCC1 was added to the medium at day 8. The effect of PCC1 on cell proliferation potential is determined by comparative analysis of the population doubling (PD) of CTRL group, BLEO group, PCC1 group and BLEO/PCC1 group. ^, P>0.05; ***, P<0.001.
# [3] = tested on: PC3/PSC27 xenograft tumors; assay: Disease-free survival of tumor-bearing NOD/SCID mice; format: in vivo; conditions: PCC1 alone
# Text: When the tumor volume in the vehicle, MIT, PCC1 and MIT/PCC1 groups exceeds 2000 mm^3, it is considered that severe disease has occurred, and the mice need to be killed in time and the tumor bearing status should be detected. ^, P>0.05; **, P<0.01.
# We next compared the survival of animals in different drug-treated groups, primarily in a time-prolonged manner to assess the consequences of tumor progression. In this preclinical cohort, animals were monitored for prostate tumor growth, and severe disease was judged to have occurred once the […] tumor burden in mice was prominent (size ≥2000 mm^3), which was a method used for assessing progression of tumors and other diseases in certain conditions.
smiles,measurement,setting,value
"Oc1cc(O)c2c(c1)O[C@H](c1ccc(O)c(O)c1)[C@H](O)[C@H]2c1c(O)cc(O)c2c1O[C@H](c1ccc(O)c(O)c1)[C@H](O)[C@H]2c1c(O)cc(O)c2c1O[C@H](c1ccc(O)c(O)c1)[C@H](O)C2 [PCC1, procyanidin C1]",SASP inhibition at lower or higher concentrations,SASP factors; compared with 10 μM,less effective
same,working concentration inhibiting SASP development with the greatest efficiency,"SASP factors; concentration gradient, senescent PSC27",10 µM
same,senescent cells remaining,"senescent PSC27 cells; 150 μM PCC1, 80% staining positive without drug",20%
same,killing effect at 200 μM versus 150 μM,senescent PSC27 cells; 200 μM PCC1,not further enhanced
same,concentration at which killing effect reached a threshold,senescent PSC27 cells; senescent PSC27,150 µM
same,concentration from which senescent cells are eliminated (SA-β-Gal staining),"senescent PSC27 cells; senescent PSC27, 0-200 μM",50 µM
same,survival of proliferating cells,"PSC27 cells [1]; proliferating PSC27, 200 μM PCC1",not significantly reduced
same,percentage of surviving senescent cells,"PSC27 cells [1]; senescent PSC27, 200 μM PCC1",approximately 10%
same,concentration from which significant death of senescent cells is induced,"PSC27 cells [1]; senescent vs control proliferating cells, CCK8",50 µM
same,population doubling (PD) ability,PSC27 cells [2]; BLEO and PCC1 combined treatment vs BLEO group,significantly increased
same,effect on PD of proliferating cells,"PSC27 cells [2]; PCC1 alone, proliferating cells",did not appear to affect
same,survival benefit of single agent,[3],only a marginal extension of survival
